Common to all, as to type: cell-based
One data set relates to TGF-β1. Nature of the data set: Gene expression of TGF-β1 in human gingival fibroblasts (RT-PCR). The settings on record: human HGF, FIG. 9A, 9B.
Data set [1] has as its system primary oral epithelial cells. Nature of the data set: Death of primary oral epithelial cells induced by free radical H2O2. The settings on record: different concentrations, in vitro; FIG. 7.
The test system of a further data set is human HGF. Nature of the data set: Synthesis of extracellular matrix (ECM) from human HGF. The settings on record: 50 μM KTTKS or GEKG; TGF-β1 0, 0.5 and 5 ng/ml; FIG. 10. Here is the method: It is determined whether or not there exists synergism between GEKG or KTTKS and TGF-β1 in the synthesis of ECM when human HGF was treated with TGF-β1 (0.5 or 5 ng/ml) alone or in combination with KTTKS or GEKG (50 µM).
Human HGF were pre-cultured in the Dulbecco's Modified Eagle Medium (DMEM) containing 0.2% bovine serum for 24 hours, and then treated with 3 different concentrations (0, 0.5 and 5 ng/ml) of TGF-β1 for 24 hours, followed by further culturing for 24 hours in the absence of KTTKS and GEKG (solid line) or in the presence of 50 μM KTTKS or GEKG (dotted line).

The subject of data set [2] is human gingival fibroblasts (HGF). Description: Proliferation of human gingival fibroblasts (HGF). The settings on record: different concentrations, in vitro; FIG. 8A.
For the next data set, the target named is TNFα (Homo sapiens, UniProt P01375). Nature of the data set: TNFα inhibition in L929 cells. The settings on record: for O.D. (TNFα inhibition): O.D. at 490/630 nm. Here is the method:
(§1) In vitro L929 cell proliferation/cytotoxicity assay was measured in a microtiter plate. L929 cells were cultured in the Eagle's minimum essential medium (EMEM) containing 10% bovine serum, 1% P/S and 1% non-essential amino acids. Converged L929 cells were washed by 2 ml of a phosphate buffer solution (PBS) and then treated with trypsin, followed by resuspension in the EMEM. 200 μl of the cell suspension were taken by suction for cell density counting, and the remaining cell suspension were centrifuged at 1500 rpm for 5 minutes. The supernatant was removed, and the EMEM was added for diluting the cells to form a final concentration of 1.5×10^5 cells/ml. 100 μl of the resultant cell suspension were added to each well of a 96-well flat-bottom microtiter plate, and then incubated at 37° C. and 5% CO2 for 24 hours.
GEKG and KTTKS were re-solved with 1× PBS to form solutions having a concentration equivalent to 1 mg GEKG/ml and 1 mg KTTKS/ml, respectively, followed by further dilution with 1× PBS to form solutions having a concentration of 500, 125, 31.25 […], respectively, and the resultant diluted solutions were mixed with a TNFα solution with an equal volume, and incubated for 1 hour. 50 μl of each of the 4 mixtures were added to the above 96-well flat-bottom microtiter plate containing L929 cells incubated for 24 hours, and actinomycin D (ActD) with a final concentration of 2 μg/ml and TNFα with a final concentration of 0.1 ng/ml were added to each well. Test wells containing 2 μg/ml ActD only and 0.1 ng/ml TNFα only were used as positive controls and blank controls, respectively. The resultant 96-well flat-bottom microtiter plate was further incubated at 37° C. and 5% CO2 for 24 hours. O.D. values at 490/630 nm were measured by a microplate reader. TNFα inhibition was calculated by the following formula: […]

The subject of another data set is L929 cells. Nature of the data set: Cytotoxicity to L929 cells (XTT). The settings on record: for O.D. (cytotoxicity): O.D. at 490/630 nm; for Cytotoxicity to L929 cells (in words): series of dilutions. The protocol:
as §1
(§2) GEKG and KTTKS were re-solved with 1× PBS to form solutions having a concentration equivalent to 1 mg GEKG/ml and 1 mg KTTKS/ml, respectively, followed by further […], respectively. 50 μl of each of the 4 diluted solutions were added to the above 96-well flat-bottom microtiter plate containing L929 cells incubated for 24 hours, and ActD with a final concentration of 2 μg/ml was added to each well. The resultant 96-well flat-bottom microtiter plate was further incubated at 37° C. and 5% CO2 for 24 hours, followed by addition of 50 μl of 2,3-bis(2-methoxy-4-nitro-5-sulfophenyl)-5-[(phenylamino)carbonyl]-2H-tetrazolium hydroxide (XTT) to each well and further incubation for 1 hour. O.D. values at 490/630 nm were measured by a microplate reader. Cytotoxicity was calculated by the following formula: […]
In general terms: Tetrazolium assays rely on reduction of a dye to a coloured formazan, in cell work by metabolically active cells.

The nature of data set [3]: Cytotoxicity to L929 cells (XTT). The settings on record: mouse, L929 cells. Here is the method: as §1, §2
The subject of data set [4] is primary oral epithelial cells. Description: Proliferation of primary oral epithelial cells. The settings on record: different concentrations, in vitro; FIG. 6.
In another data set the test system is Type I collagen. Description: Gene expression of Type I collagen in human gingival fibroblasts (RT-PCR). The settings on record: concentration of 0 to 40 μl, FIG. 8B. Here is the method: Production of Type I collagen in human gingival fibroblasts was observed. There is a dose-dependent relationship between expression of Type I collagen and GEKG and KTTKS in a concentration of 0 to 40 μl.

The test system of data set [5] is macrophages. Description: H2O2 production from macrophages induced by LPS. The settings on record: in vitro; FIG. 5. Here is the method:
An ability of GEKG and KTTKS against inflammatory oxidation pressure in vitro was evaluated by using the well-known inflammation model of H2O2 production from macrophages induced by lipopolysaccharide (LPS).

Data set [6] concerns macrophages. Nature of the data set: NO production from macrophages induced by LPS. The settings on record: in vitro; FIGS. 3 and 4. The protocol: In vitro anti-inflammation of GEKG and KTTKS was evaluated by using the well-known inflammation model of NO production from macrophages induced by lipopolysaccharide (LPS).

Ends that are not written are not given here. Peptide text beside a SMILES is read from it.

Results on 3 compounds are retold here after US12383598B2, “Method for treating gingivitis and gingival atrophy and repairing oral mucosa” (ADVANCED HEALTHTECH BIOPEPTIDE LABORATORIES CO., LTD, priority 2021, dated 2025).

One may read the inhibition as the drop in the measured response relative to a control, in per cent.

Sequence of TNFα (P01375 77-233 limits assumed, species assumed): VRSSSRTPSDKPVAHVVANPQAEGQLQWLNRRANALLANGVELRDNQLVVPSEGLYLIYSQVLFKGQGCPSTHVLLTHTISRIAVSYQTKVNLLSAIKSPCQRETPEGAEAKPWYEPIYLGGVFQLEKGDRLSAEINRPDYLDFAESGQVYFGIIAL

Take `NCCCC[C@H](NC(=O)[C@H](CCC(=O)O)NC(=O)CN)C(=O)NCC(=O)O` [GEKG] (H-GEKG-OH): the “Gene expression of TGF-β1” value in the data set on TGF-β1 is listed as “stimulate gene expression of TGF-β1 in transcription”. Further, in data set [1], the “Reduction of death of primary oral epithelial cells induced by free radical H2O2” value is on record as “reduce death of primary oral epithelial cells induced by free radical H2O2 in vitro in a dose-dependent manner”. Further, the “Synthesis of ECM (collagen and fibrin) from human HGF” value (shortened to “Synthesis of ECM”) in the data set on human HGF is “exhibit a more significant ability in inducing human HGF for synthesizing ECM than TGF-β1”. The “Effect on proliferation of HGF” value in data set [2] is “neither GEKG nor KTTKS in different concentrations exhibits a significant effect in promoting proliferation of HGF”. Besides, the “O.D. (TNFα inhibition)” value at TNFα (GEKG dilution 1/16) was 1.60; on TNFα (GEKG dilution 1/64), 0.80; at TNFα (GEKG dilution 1/256), 0.61; on TNFα (GEKG dilution 1/512), 0.56; at TNFα (GEKG dilution 1/1024), 0.51; on TNFα (GEKG dilution 1/2048) it was 0.48. The “O.D. (TNFα inhibition)” value on TNFα (GEKG dilution 1/4096) was 0.51; at TNFα (GEKG dilution ¼), 2.87. Besides, the “O.D. (cytotoxicity)” value came out at 2.01 in the data set on L929 cells (GEKG dilution 1/16); 1.83 with L929 cells (GEKG dilution 1/64); 1.87 in the data set on L929 cells (GEKG dilution 1/256); 1.82 in the data set on L929 cells (GEKG dilution 1/512); 1.79 in the data set with L929 cells (GEKG dilution 1/1024); 1.75 in the data set with L929 cells (GEKG dilution 1/2048). Moreover, the “O.D. (cytotoxicity)” value in the data set on L929 cells (GEKG dilution 1/4096) worked out at 1.87; in the data set on L929 cells (GEKG dilution ¼), 2.84. Moreover, in the data set with L929 cells, the “Cytotoxicity to L929 cells (in words)” value is reported as “does not induce cytotoxicity”. Also, the cytotoxicity at 24 h in data set [3] (GEKG dilution 1/16) is -12.3%; in data set [3] (GEKG dilution 1/64) it was -2.32%; in data set [3] (GEKG dilution 1/256), -4.61%; in [3] (GEKG dilution 1/512) it was -1.71%; in data set [3] (GEKG dilution 1/1024) it was 0.11%; in data set [3] (GEKG dilution 1/2048), 1.9%. In addition, the cytotoxicity at 24 h in data set [3] (GEKG dilution 1/4096) is -4.72%; in data set [3] (GEKG dilution ¼) it was -58.7%. In [4], the “Promotion of proliferation of primary oral epithelial cells” value is “promote proliferation of primary oral epithelial cells in vitro in a dose-dependent manner”. For the same compound, the “Gene expression of Type I collagen” value in the data set with Type I collagen is given as “stimulate gene expression of Type I collagen in transcription”. The “Inhibition of H2O2 production from macrophages induced by LPS” value with macrophages [5] is on record as “inhibit H2O2 production from macrophages induced by LPS in a dose-dependent manner”. The “Inhibition of NO production from macrophages induced by LPS” value in the data set with macrophages [6] is given as “inhibit NO production from macrophages induced by LPS in a dose-dependent manner”.
With KTTKS [KTTKS], the “Gene expression of TGF-β1” value in the data set with TGF-β1 was “stimulate gene expression of TGF-β1 in transcription”. The “Reduction of death of primary oral epithelial cells induced by free radical H2O2” value in data set [1] was “reduce death of primary oral epithelial cells induced by free radical H2O2 in vitro in a dose-dependent manner”. Also, the “Synthesis of ECM” value with human HGF is listed as “exhibit a more significant ability in inducing human HGF for synthesizing ECM than TGF-β1”. In addition, the “Effect on proliferation of HGF” value in data set [2] was “neither GEKG nor KTTKS in different concentrations exhibits a significant effect in promoting proliferation of HGF”. Also, the “O.D. (TNFα inhibition)” value at TNFα (KTTKS 4.156 μg/ml) is on record as 0.479; at TNFα (KTTKS 16.625 μg/ml), 0.597; at TNFα (KTTKS 66.5 μg/ml), 1.042; at TNFα (KTTKS 266 μg/ml) it was 2.363. In addition, the inhibition at 4.156 µg/mL against TNFα (L929, KTTKS 4.156 μg/ml) stood at 10.5%. The inhibition at 16.625 µg/mL against TNFα (L929, KTTKS 16.625 μg/ml) turned out to be 21.1%. At TNFα (L929, KTTKS 66.5 μg/ml), the inhibition at 66.5 µg/mL was 60.9%. Also, the inhibition at 266 µg/mL against TNFα (L929, KTTKS 266 μg/ml) amounted to 179%. Further, the “O.D. (cytotoxicity)” value in the data set on L929 cells (KTTKS 4.156 μg/ml) is listed as 1.600; with L929 cells (KTTKS 16.625 μg/ml), 1.535; in the data set on L929 cells (KTTKS 66.5 μg/ml) it was 1.784; in the data set on L929 cells (KTTKS 266 μg/ml), 2.616. In addition, the “Cytotoxicity to L929 cells (in words)” value in the data set on L929 cells is reported as “does not induce cytotoxicity”. Also, the cytotoxicity at 24 h, 4.156 μg/ml in data set [3] (KTTKS 4.156 μg/ml) was -8.3%. Further, the cytotoxicity at 24 h, 16.625 μg/ml in data set [3] (KTTKS 16.625 μg/ml) is -3.9%. In addition, the cytotoxicity at 24 h, 66.5 μg/ml in data set [3] (KTTKS 66.5 μg/ml) was -20.8%. In [3] (KTTKS 266 μg/ml), the cytotoxicity at 24 h, 266 μg/ml was -77.1%. For the same compound, the “Promotion of proliferation of primary oral epithelial cells” value in data set [4] is listed as “promote proliferation of primary oral epithelial cells in vitro in a dose-dependent manner”. The “Gene expression of Type I collagen” value in the data set with Type I collagen was “stimulate gene expression of Type I collagen in transcription”. In addition, the “Inhibition of H2O2 production from macrophages induced by LPS” value in the data set on macrophages [5] was “inhibit H2O2 production from macrophages induced by LPS in a dose-dependent manner”. Besides, the “Inhibition of NO production from macrophages induced by LPS” value with macrophages [6] is “inhibit NO production from macrophages induced by LPS in a dose-dependent manner”.
“TGF-β1: tumor growth factor-β1 used at 0.5 or 5 ng/ml to treat human HGF [reference compound]”: in the data set with human HGF, the “Synthesis of ECM” value is reported as “up-regulate biosynthesis of ECM”.
